Laboratory results taken from US20190262330A1, “Method of Treating Hepatocellular Carcinoma Using N-(4-(6,7-dimethoxyquinolin-4-yloxy)phenyl)-N′-(4-fluorophenyl)cyclopropane-1,1-dicarboxamide, (2S)-hydroxybutanedioate” (Exelixis, Inc., priority 2017, published 2019).

Legend:
[1] = test system: patients with advanced renal cell carcinoma; test: CABOSUN trial, safety; type: in vivo, human
[2] = test system: advanced RCC without prior therapy; test: CABOSUN trial, efficacy; type: in vivo, human; details: ITT
Description: All patients were required to have intermediate or poor risk disease as defined by the International Metastatic RCC Database Consortium (IMDC) risk group categories. Patients were stratified by IMDC risk group and presence of bone metastases (yes/no).
The major efficacy outcome measure was progression-free survival (PFS) by a retrospective blinded independent radiology review committee (BIRC).

[3] = test system: patients with advanced renal cell carcinoma; test: METEOR trial, safety; type: in vivo, human
Description: Patients on both arms who had disease progression could continue treatment at the discretion of the investigator [see Clinical Studies (14)].

[4] = test system: advanced RCC after prior anti-angiogenic therapy; test: METEOR trial, efficacy; type: in vivo, human
Description: Patients were stratified by the number of prior VEGFR tyrosine kinase inhibitors (TKIs) and Memorial Sloan Kettering Cancer Center (MSKCC) Risk Group. […] The majority of the patients were male (75%), with a median age of 62 years. Sixty-nine percent (69%) received only one prior anti-angiogenic therapy. […] The main efficacy outcome measure was progression-free survival (PFS) assessed by a blinded independent radiology review committee among the first 375 subjects randomized. Other efficacy endpoints were objective response rate (ORR) and overall survival (OS) in the Intent-to-Treat (ITT) population. Tumor assessments were conducted every 8 weeks for the first 12 months, then every 12 weeks thereafter. Patients received treatment until disease progression or experiencing unacceptable toxicity. Patients on both arms who had disease progression could continue treatment at the discretion of the investigator.

[5] = Solubility in aqueous media; type: physicochemical
[6] = test system: patients who have not received prior systemic therapy; details: in vivo; cited from earlier work
[7] = test system: sorafenib-tolerant patients with hepatocellular carcinoma; details: in vivo; cited from earlier work

SMILES: CCN(CC)CCNC(=O)c1c(C)[nH]c(/C=C2\C(=O)Nc3ccc(F)cc32)c1C [Sunitinib, sunitinib]
- Deaths within 30 days of treatment ([1]; CABOSUN): 6 deaths
- ALT increased, Grade 3-4 ([1]; human, in vivo): 0%
- AST increased, Grade 3-4 ([1]; human, in vivo): 3%
- Anemia, Grade 3-4 ([1]; human, in vivo): 3%
- Angiopathy, Grade 3-4 ([1]; human, in vivo): 1%
- Arthralgia, Grade 3-4 ([1]; human, in vivo): 0%
- Back pain, Grade 3-4 ([1]; human, in vivo): 0%
- Blood creatinine increased, Grade 3-4 ([1]; human, in vivo): 3%
- Bone pain, Grade 3-4 ([1]; human, in vivo): 1%
- Confusional state, Grade 3-4 ([1]; human, in vivo): 1%
- Constipation, Grade 3-4 ([1]; human, in vivo): 0%
- Decreased appetite, Grade 3-4 ([1]; human, in vivo): 1%
- Dehydration, Grade 3-4 ([1]; human, in vivo): 1%
- Depression, Grade 3-4 ([1]; human, in vivo): 0%
- Diarrhea, Grade 3-4 ([1]; human, in vivo): 11%
- Dysphonia, Grade 3-4 ([1]; human, in vivo): 0%
- Dyspnea, Grade 3-4 ([1]; human, in vivo): 6%
- Fatigue, Grade 3-4 ([1]; human, in vivo): 17%
- Hyperkalemia, Grade 3-4 ([1]; human, in vivo): 3%
- Hypertension, Grade 3-4 ([1]; human, in vivo): 21%
- Hypocalcemia, Grade 3-4 ([1]; human, in vivo): 0%
- Hypomagnesemia, Grade 3-4 ([1]; human, in vivo): 0%
- Hyponatremia, Grade 3-4 ([1]; human, in vivo): 8%
- Hypophosphatemia, Grade 3-4 ([1]; human, in vivo): 7%
- Hypotension, Grade 3-4 ([1]; human, in vivo): 1%
- Lung infection, Grade 3-4 ([1]; human, in vivo): 0%
- Lymphocyte count decreased, Grade 3-4 ([1]; human, in vivo): 6%
- Nausea, Grade 3-4 ([1]; human, in vivo): 4%
- Pain in extremity, Grade 3-4 ([1]; human, in vivo): 0%
- Pain, Grade 3-4 ([1]; human, in vivo): 0%
- Palmar-plantar erythrodysesthesia, Grade 3-4 ([1]; human, in vivo): 4%
- Patients discontinued due to an adverse reaction ([1]; human, in vivo): 22%
- Patients with any Grade 3-4 Adverse Reaction ([1]; human, in vivo): 65%
- Patients with dose held ([1]; human, in vivo): 71%
- Patients with dose reduced ([1]; human, in vivo): 35%
- Platelet count decreased, Grade 3-4 ([1]; human, in vivo): 11%
- Proteinuria, Grade 3-4 ([1]; human, in vivo): 1%
- Renal failure acute, Grade 3-4 ([1]; human, in vivo): 1%
- Skin ulcer, Grade 3-4 ([1]; human, in vivo): 0%
- Stomatitis, Grade 3-4 ([1]; human, in vivo): 6%
- Syncope, Grade 3-4 ([1]; human, in vivo): 0%
- Vomiting, Grade 3-4 ([1]; human, in vivo): 3%
- Weight decreased, Grade 3-4 ([1]; human, in vivo): 0%
- Overall survival events [2]: (60) %
- Confirmed ORR, partial responses only ([2]; BIRC): 9%
- Median PFS ([2]; BIRC): 5.3 months
- Progression-free survival events ([2]; BIRC): (63) %

SMILES: CO[C@H]1C[C@@H]2CC[C@@H](C)[C@@](O)(O2)C(=O)C(=O)N2CCCC[C@H]2C(=O)O[C@H]([C@H](C)C[C@@H]2CC[C@@H](OCCO)[C@H](OC)C2)CC(=O)[C@H](C)/C=C(\C)[C@@H](O)[C@@H](OC)C(=O)[C@H](C)C[C@H](C)/C=C/C=C/C=C/1C [Everolimus, everolimus]
- Adverse reactions leading to study treatment being held ([3]; METEOR): 59%
- Adverse reactions leading to study treatment discontinuation ([3]; METEOR): 10%
- Palmar-plantar erythrodysesthesia, All Grades ([3]; METEOR adverse reaction): 6%
- Palmar-plantar erythrodysesthesia, Grade 3-4 ([3]; METEOR adverse reaction): <1%
- Confirmed ORR, partial responses only ([4]; ITT): 3%
- Median PFS (95% CI) ([4]; first 375 randomized): 3.8 (3.7, 5.4) months

SMILES: COc1cc2nccc(Oc3ccc(NC(=O)C4(C(=O)Nc5ccc(F)cc5)CC4)cc3)c2cc1OC.O=C(O)C[C@H](O)C(=O)O [Cabozantinib (S)-malate salt]
- Solubility [5]: practically insoluble

SMILES: CNC(=O)c1cc(Oc2ccc(NC(=O)Nc3ccc(Cl)c(C(F)(F)F)c3)cc2)ccn1 [sorafenib]
- Objective responses [6]: very few objective responses
- Overall survival [6]: improves overall survival

SMILES: CNC(=O)c1cc(Oc2ccc(NC(=O)Nc3ccc(Cl)c(C(F)(F)F)c3)c(F)c2)ccn1 [Regorafenib]
- Overall survival compared with placebo [7]: improved overall survival
